Values quoted from earlier work as cited in patent US20070203140A1, “N-hydroxyguanidines as modulators of indoleamine 2,3-dioxygenase” (priority 2006, published 2007).

Legend:
[1] = system: LLC tumors; details: LLC tumors in C57B1/6 mice, versus placebo
[2] = system: P815 tumor; details: pre-immunized immune-competent mice

## Cn1cc(C[C@H](N)C(=O)O)c2ccccc21 [Example 1-MT, 1-methyl-tryptophan]
[1]
  formation of tumors: markedly delayed
[2]
  growth of tumors: inhibited
